Values joined by “and” are separate entries in the source; they are usually repeats but may differ in a detail not shown here. Equal values may be shown once.

This test concerns Swiss mice, Sarcoma 180 sc, mean tumor weight T/C. Kind of test: NCI In Vivo Anticancer Drug Screen. Data for tumor model Sarcoma 180 (subcutaneous) in Swiss mice. The note with it: endpoint: mean tumor weight, higher = larger tumour. A digest of the protocol: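 T/C ratio: treated over vehicle-treated controls, measuring survival or tumor size in transplanted-tumor mice.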
Where [1] appears, read: dose: 5.0 mg/kg/injection, schedule: Q01DX007 (ip), vehicle: carboxymethylcellulose (CMC).

In the case of `CC(=O)C1(/C(C)=C/C2C(C=O)=CC(C)(C)C2O)CC1` (stereo unspecified), the T/C was 106 % of control (dose: 0.25 mg/kg/injection, schedule: Q01DX007 (ip), vehicle: saline); 59 % of control (dose: 0.5 mg/kg/injection, schedule: Q01DX007 (ip), vehicle: saline); 65 % of control (dose: 1.0 mg/kg/injection, schedule: Q01DX007 (ip), vehicle: saline); 67 % of control (dose: 2.0 mg/kg/injection, schedule: Q01DX007 (ip), vehicle: saline); 75 % of control (dose: 8.0 mg/kg/injection, schedule: Q01DX007 (ip), vehicle: saline); 94 % of control and 102 % of control (dose: 16.0 mg/kg/injection, schedule: Q01DX007 (ip), vehicle: saline). The T/C is, setting by setting: (dose: 32.0 mg/kg/injection, schedule: Q01DX007 (ip), vehicle: saline) 99 % of control; (dose: 64.0 mg/kg/injection, schedule: Q01DX007 (ip), vehicle: saline) 77 % of control; (dose: 128.0 mg/kg/injection, schedule: Q01DX007 (ip), vehicle: saline) 78 % of control.

As for `Nc1nc(SN=Nc2ccc(S(=O)(=O)O)cc2)c2[nH]cnc2n1`, the T/C was 104 % of control (dose: 1.75 mg/kg/injection, schedule: Q01DX007 (ip), vehicle: other); 80 % of control (dose: 3.5 mg/kg/injection, schedule: Q01DX007 (ip), vehicle: other); 65 % of control (dose: 6.0 mg/kg/injection, schedule: Q01DX007 (ip), vehicle: other); 46 % of control (dose: 7.0 mg/kg/injection, schedule: Q01DX007 (ip), vehicle: other); 57 % of control (dose: 9.0 mg/kg/injection, schedule: Q01DX007 (ip), vehicle: other); 18 % of control and 27 % of control and 33 % of control (dose: 14.0 mg/kg/injection, schedule: Q01DX007 (ip), vehicle: other). Moreover, where the note is “dose: 21.0 mg/kg/injection, schedule: Q01DX007 (ip), vehicle: other”, the T/C was 1 % of control and 14 % of control.

With `Nc1nc(SC2=NCCN2)c2[nH]cnc2n1`, the T/C was 57 % of control (dose: 1.25 mg/kg/injection, schedule: Q01DX007 (ip), vehicle: carboxymethylcellulose (CMC)); 67 % of control (dose: 2.5 mg/kg/injection, schedule: Q01DX007 (ip), vehicle: carboxymethylcellulose (CMC)); 57 % of control under setting [1].

`O=C(NP(=O)(N1CC1)N1CC1)OCc1ccccc1`: the T/C (dose: 1.5 mg/kg/injection, schedule: Q#A X014 (ip), vehicle: saline) is 82 % of control; the T/C (dose: 3.0 mg/kg/injection, schedule: Q#A X014 (ip), vehicle: saline) is 81 % of control; the T/C (dose: 6.0 mg/kg/injection, schedule: Q#A X014 (ip), vehicle: saline) was 36 % of control; the T/C (dose: 12.0 mg/kg/injection, schedule: Q#A X014 (ip), vehicle: saline) is 1 % of control.

`Cc1cc(C)c(N)c(C)c1N`: the T/C (dose: 187.5 mg/kg/injection, schedule: Q#A X014 (ip), vehicle: methylcellulose (MC)) was 48 % of control.

With `CCOC(=O)C(N)CC(C)C` (stereo unspecified), the T/C reads like this: (dose: 250.0 mg/kg/injection, schedule: Q01DX007 (ip), vehicle: carboxymethylcellulose (CMC)) 101 % of control; (dose: 500.0 mg/kg/injection, schedule: Q01DX007 (ip), vehicle: carboxymethylcellulose (CMC)) 120 % of control.

`O=C(O)CCCNC(=O)c1ccc([N+](=O)[O-])cc1`: the T/C is, setting by setting: (dose: 125.0 mg/kg/injection, schedule: Q01DX007 (ip), vehicle: methylcellulose (MC)) 67 % of control; (dose: 250.0 mg/kg/injection, schedule: Q01DX007 (ip), vehicle: methylcellulose (MC)) 78 % of control.

With `CO[C@H](C(=O)[C@@H](O)[C@@H](C)O)[C@@H]1Cc2cc3cc(OC4CC(OC5CC(O)C(O)C(C)O5)C(O)C(C)O4)c(C)c(O)c3c(O)c2C(=O)[C@H]1OC1CC(OC2CC(OC3CC(C)(O)C(O)C(C)O3)C(O)C(C)O2)C(O)C(C)O1` (stereo partly specified), the T/C is 72 % of control (dose: 0.25 mg/kg/injection, schedule: Q01DX007 (ip), vehicle: water); 50 % of control (dose: 0.3 mg/kg/injection, schedule: Q01DX007 (ip), vehicle: water); 74 % of control (dose: 0.3 mg/kg/injection, schedule: Q02DX004 (ip), vehicle: water); 45 % of control (dose: 0.45 mg/kg/injection, schedule: Q01DX007 (ip), vehicle: water); 80 % of control (dose: 0.45 mg/kg/injection, schedule: Q02DX004 (ip), vehicle: water); 57 % of control (dose: 0.5 mg/kg/injection, schedule: Q01DX007 (ip), vehicle: water). For the same molecule, the T/C (dose: 0.6 mg/kg/injection, schedule: Q02DX004 (ip), vehicle: water) was 47 % of control; the T/C (dose: 1.0 mg/kg/injection, schedule: Q01DX007 (ip), vehicle: water) is 102 % of control; the T/C (dose: 1.0 mg/kg/injection, schedule: Q02DX004 (ip), vehicle: water) is 80 % of control; the T/C (dose: 2.0 mg/kg/injection, schedule: Q01DX007 (ip), vehicle: water) was 72 % of control; the T/C (dose: 2.0 mg/kg/injection, schedule: Q02DX004 (ip), vehicle: water) is 67 % of control; the T/C (dose: 3.0 mg/kg/injection, schedule: Q02DX004 (ip), vehicle: water) was 50 % of control. Moreover, the T/C is, setting by setting: (dose: 4.0 mg/kg/injection, schedule: Q02DX004 (ip), vehicle: water) 60 % of control; (dose: 5.0 mg/kg/injection, schedule: Q02DX004 (ip), vehicle: water) 50 % of control.

For the molecule `CC(C)C(=O)OCC1OC(n2cnc3c(=S)nc(N)[nH]c32)C(OC(=O)C(C)C)C1OC(=O)C(C)C` (stereo unspecified), the T/C runs as follows: (dose: 6.0 mg/kg/injection, schedule: Q01DX007 (ip), vehicle: carboxymethylcellulose (CMC)) 72 % of control; (dose: 9.0 mg/kg/injection, schedule: Q01DX007 (ip), vehicle: carboxymethylcellulose (CMC)) 42 % of control; (dose: 14.0 mg/kg/injection, schedule: Q01DX007 (ip), vehicle: methylcellulose (MC)) 42 % of control; (dose: 21.0 mg/kg/injection, schedule: Q01DX007 (ip), vehicle: carboxymethylcellulose (CMC)) 5 % of control and 21 % of control; (dose: 21.0 mg/kg/injection, schedule: Q01DX007 (ip), vehicle: methylcellulose (MC)) 29 % of control; (dose: 31.0 mg/kg/injection, schedule: Q01DX007 (ip), vehicle: carboxymethylcellulose (CMC)) 7 % of control. For the same molecule, for the setting “dose: 31.0 mg/kg/injection, schedule: Q01DX007 (ip), vehicle: methylcellulose (MC)”, the T/C was 22 % of control.

Turning to `Clc1ccc2c(c1)C(Br)c1cc(Cl)cc(Cl)c1-2` (stereo unspecified), the T/C is, setting by setting: (dose: 222.0 mg/kg/injection, schedule: Q01DX007 (ip), vehicle: other) 66 % of control; (dose: 222.0 mg/kg/injection, schedule: Q01DX007 (ip), vehicle: saline) 67 % of control; (dose: 333.0 mg/kg/injection, schedule: Q01DX007 (ip), vehicle: other) 27 % of control; (dose: 333.0 mg/kg/injection, schedule: Q01DX007 (ip), vehicle: saline) 32 % of control; (dose: 500.0 mg/kg/injection, schedule: Q01DX007 (ip), vehicle: other) 30 % of control; (dose: 750.0 mg/kg/injection, schedule: Q01DX007 (ip), vehicle: other) 21 % of control.

Take `CC(C)=CCC1=C(O)c2ccccc2C(=O)C1=O`: the T/C runs as follows: (dose: 30.0 mg/kg/injection, schedule: Q01DX007 (ip), vehicle: water) 96 % of control; (dose: 50.0 mg/kg/injection, schedule: Q01DX007 (ip), vehicle: water) 97 % of control; (dose: 67.0 mg/kg/injection, schedule: Q01DX007 (ip), vehicle: other) 68 % of control; (dose: 100.0 mg/kg/injection, schedule: Q01DX007 (ip), vehicle: other) 90 % of control; (dose: 100.0 mg/kg/injection, schedule: Q01DX007 (ip), vehicle: water) 91 % of control and 107 % of control; (dose: 100.0 mg/kg/injection, schedule: Q#A X014 (oral), vehicle: other) 70 % of control. Besides, the T/C is, setting by setting: (dose: 150.0 mg/kg/injection, schedule: Q01DX007 (ip), vehicle: other) 73 % of control; (dose: 150.0 mg/kg/injection, schedule: Q#A X014 (oral), vehicle: other) 46 % of control; (dose: 200.0 mg/kg/injection, schedule: Q#A X014 (oral), vehicle: other) 42 % of control.

In the case of `O=CNc1c(Cl)c(Cl)c2c(c1Cl)Cc1cc(Cl)ccc1-2`, the T/C under setting [1] was 70 % of control; the T/C (dose: 15.0 mg/kg/injection, schedule: Q01DX007 (ip), vehicle: carboxymethylcellulose (CMC)) is 60 % of control; the T/C (dose: 30.0 mg/kg/injection, schedule: Q01DX007 (ip), vehicle: carboxymethylcellulose (CMC)) was 34 % of control; the T/C (dose: 49.0 mg/kg/injection, schedule: Q01DX007 (ip), vehicle: carboxymethylcellulose (CMC)) was 63 % of control; the T/C (dose: 73.0 mg/kg/injection, schedule: Q01DX007 (ip), vehicle: carboxymethylcellulose (CMC)) is 64 % of control; the T/C (dose: 110.0 mg/kg/injection, schedule: Q01DX007 (ip), vehicle: carboxymethylcellulose (CMC)) was 51 % of control. In addition, for the setting “dose: 165.0 mg/kg/injection, schedule: Q01DX007 (ip), vehicle: carboxymethylcellulose (CMC)”, the T/C is 5 % of control.

(Values after PubChem BioAssay AID342 (DTP/NCI, 2004).)
